The values below are quoted from earlier work in patent US20250082604A1, “COMPOSITIONS CONTAINING A HIGH CONTENT OF PROANTHOCYANIDINS AND METHODS OF PREPARATION AND USE THEREOF” (priority 2022, published 2025).

Molecules are shown by their SMILES.

For the data set, the system named is human HepG2 cells. The settings on record: literature data (dx.doi.org/10.3390/antiox9060471).
As for `Oc1ccc(C=Cc2cc(O)cc(O)c2)cc1` [resveratrol], the “AOP1 EC50, data from the literature” value was 64.66 µg/mL.

`Cc1cc(C(C)(C)C)c(O)c(C(C)(C)C)c1` [BHT]: the “AOP1 EC50, data from the literature” value was 34.25 µg/mL.

With `COc1ccc(O)c(C(C)(C)C)c1` [BHA], the “AOP1 EC50, data from the literature” value was 31.54 µg/mL.

With `Cc1c(C)c2c(c(C)c1O)CCC(C)(C(=O)O)O2` (stereo not shown) [Trolox], the “AOP1 EC50, data from the literature” value is 138.50 µg/mL.
